Data on 23 molecules can be found in patent US9834558B2, “Substituted bridged urea analogs as sirtuin modulators” (GLAXOSMITHKLINE LLC, priority 2013, dated 2017).

The target of the experiment is T1, SIRT1 (Homo sapiens, UniProt Q96EB6).
T1 sequence (Q96EB6 1-747): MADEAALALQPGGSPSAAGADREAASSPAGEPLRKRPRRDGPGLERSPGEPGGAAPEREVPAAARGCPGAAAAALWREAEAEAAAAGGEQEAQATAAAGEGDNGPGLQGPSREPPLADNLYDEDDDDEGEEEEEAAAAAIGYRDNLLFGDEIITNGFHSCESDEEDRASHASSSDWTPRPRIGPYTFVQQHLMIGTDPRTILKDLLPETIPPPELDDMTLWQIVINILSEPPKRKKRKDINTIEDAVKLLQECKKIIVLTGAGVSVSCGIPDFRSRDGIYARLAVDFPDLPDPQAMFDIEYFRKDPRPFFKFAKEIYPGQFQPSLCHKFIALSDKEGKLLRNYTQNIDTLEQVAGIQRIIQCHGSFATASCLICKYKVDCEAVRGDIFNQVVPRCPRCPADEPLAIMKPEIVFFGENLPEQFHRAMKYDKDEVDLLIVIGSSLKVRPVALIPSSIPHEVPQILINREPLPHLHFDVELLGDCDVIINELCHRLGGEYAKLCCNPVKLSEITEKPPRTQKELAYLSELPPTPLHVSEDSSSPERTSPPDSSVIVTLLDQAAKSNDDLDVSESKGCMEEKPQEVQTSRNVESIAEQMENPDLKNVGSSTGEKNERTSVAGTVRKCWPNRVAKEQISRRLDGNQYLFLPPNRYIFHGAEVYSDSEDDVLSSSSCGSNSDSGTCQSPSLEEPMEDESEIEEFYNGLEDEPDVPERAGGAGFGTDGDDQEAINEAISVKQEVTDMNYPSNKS
In words: Trp mass spectrometry assay of SIRT1 activation. The experiment is classed as biochemical. As to conditions: Trp peptide assay; for TRP Activity (EC1.5): EC1.5 = concentration that results in 150% activation of SIRT1; for Emax: maximum activity relative to control (100%), read-out: TRP MAX RESP (percent maximum fold activation). The method, boiled down:
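N-terminal His-tagged human SIRT1 (10 nM, E. coli BL21(DE3)) with 0.5 μM Ac-RHKK(Ac)W-NH2 peptide and 120 μM βNAD+, 25 min at 25 °C in HEPES pH 7.5, formic acid stop. OAADPR or deacetylated peptide quantified by mass spectrometry; EC1.5 (50% activity increase over control) and Percent Maximum Activation reported.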

Consider `CC1CCN(c2ccc3c(n2)N(C(=O)Nc2cnccn2)[C@H]2CCN3C2)CC1` [(9S)-5-(4-methylpiperidin-1-yl)-N-(pyrazin-2-yl)-1,6,8-triazatricyclo[7.2.1.0 {2,7}]dodeca-2,4,6-triene-8-carboxamide], for which the “TRP Activity (EC1.5)” value is “B (B (EC1.5 1-25 μM))” and the Emax is more than 150%.
On to `Cc1cc(-c2ccc3c(n2)N(C(=O)Nc2cnccn2)[C@H]2CCN3C2)cnc1C` [(9S)-5-(5,6-dimethylpyridin-3-yl)-N-(pyrazin-2-yl)-1,6,8-triazatricyclo[7.2.1.0 {2,7}]dodeca-2(7),3,5-triene-8-carboxamide], for which the “TRP Activity (EC1.5)” value was “A (A (EC1.5<1 μM))” and the Emax was more than 150%.
In the case of `CCOc1ncc(-c2ccc3c(n2)N(C(=O)Nc2cnccn2)[C@H]2CCN3C2)cc1C#N` [(9S)-5-(5-cyano-6-ethoxypyridin-3-yl)-N-(pyrazin-2-yl)-1,6,8-triazatricyclo[7.2.1.0^{2,7}]dodeca-2(7),3,5-triene-8-carboxamide], the “TRP Activity (EC1.5)” value is given as “C (C (EC1.5>25 μM))” and the Emax was less than 150%.
On the same counts, the results for `Cc1cc(-c2ccc3c(n2)N(C(=O)Nc2cnccn2)[C@H]2CCN3C2)c(F)cn1` [(9S)-5-(5-fluoro-2-methylpyridin-4-yl)-N-(pyrazin-2-yl)-1,6,8-triazatricyclo[7.2.1.0 {2,7}]dodeca-2(7),3,5-triene-8-carboxamide] are “B (B (EC1.5 1-25 μM))” and more than 150%.
Take `Cc1ncc(-c2ccc3c(n2)N(C(=O)Nc2cnccn2)[C@H]2CCN3C2)cc1F` [(9S)-5-(5-fluoro-6-methylpyridin-3-yl)-N-(pyrazin-2-yl)-1,6,8-triazatricyclo[7.2.1.0 {2,7}]dodeca-2(7),3,5-triene-8-carboxamide]: the “TRP Activity (EC1.5)” value is “B (B (EC1.5 1-25 μM))” and the Emax is more than 150%.
Regarding `Cc1ncc(-c2ccc3c(n2)N(C(=O)Nc2cccnc2)[C@H]2CCN3C2)cc1F` [(9S)-5-(5-fluoro-6-methylpyridin-3-yl)-N-(pyridin-3-yl)-1,6,8-triazatricyclo[7.2.1.0 {2,7}]dodeca-2(7),3,5-triene-8-carboxamide], the “TRP Activity (EC1.5)” value was “B (B (EC1.5 1-25 μM))” and the Emax is more than 150%.
As for `Cc1cncc(-c2ccc3c(n2)N(C(=O)Nc2cnccn2)[C@H]2CCN3C2)c1` [(9S)-5-(5-methylpyridin-3-yl)-N-(pyrazin-2-yl)-1,6,8-triazatricyclo[7.2.1.0 {2,7}]dodeca-2(7),3,5-triene-8-carboxamide], the “TRP Activity (EC1.5)” value is given as “B (B (EC1.5 1-25 μM))” and the Emax was more than 150%.
Consider `N#Cc1ncc(-c2ccc3c(n2)N(C(=O)Nc2cnccn2)[C@H]2CCN3C2)cc1F` [(9S)-5-(6-cyano-5-fluoropyridin-3-yl)-N-(pyrazin-2-yl)-1,6,8-triazatricyclo[7.2.1.0^2,7]dodeca-2(7),3,5-triene-8-carboxamide], for which the “TRP Activity (EC1.5)” value is listed as “C (C (EC1.5>25 μM))” and the Emax was less than 150%.
Take `Cc1cc(-c2ccc3c(n2)N(C(=O)Nc2cnccn2)[C@H]2CCN3C2)cnc1C#N` [(9S)-5-(6-cyano-5-methylpyridin-3-yl)-N-(pyrazin-2-yl)-1,6,8-triazatricyclo[7.2.1.0 {2,7}]dodeca-2(7),3,5-triene-8-carboxamide]: the “TRP Activity (EC1.5)” value was “B (B (EC1.5 1-25 μM))” and the Emax is more than 150%.
On the same counts, the results for `N#Cc1ccc(-c2ccc3c(n2)N(C(=O)Nc2cnccn2)[C@H]2CCN3C2)cn1` [(9S)-5-(6-cyanopyridin-3-yl)-N-(pyrazin-2-yl)-1,6,8-triazatricyclo[7.2.1.0 {2,7}]dodeca-2,4,6-triene-8-carboxamide] are “C (C (EC1.5>25 μM))” and less than 150%.
In the same order, the values of `N#Cc1ccc(-c2ccc3c(n2)N(C(=O)Nc2cccnc2)[C@H]2CCN3C2)cn1` [(9S)-5-(6-cyanopyridin-3-yl)-N-(pyridin-3-yl)-1,6,8-triazatricyclo[7.2.1.0^2,7]dodeca-2,4,6-triene-8-carboxamide] are “B (B (EC1.5 1-25 μM))” and more than 150%.
Consider `O=C(Nc1cnccn1)N1c2nc(-c3ccc(C4CC4)nc3)ccc2N2CC[C@H]1C2` [(9S)-5-(6-cyclopropylpyridin-3-yl)-N-(pyrazin-2-yl)-1,6,8-triazatricyclo[7.2.1.0 {2,7}]dodeca-2(7),3,5-triene-8-carboxamide], for which the “TRP Activity (EC1.5)” value is listed as “B (B (EC1.5 1-25 μM))” and the Emax was more than 150%.
Consider `CCc1ccc(-c2ccc3c(n2)N(C(=O)Nc2cnccn2)[C@H]2CCN3C2)cn1` [(9S)-5-(6-ethylpyridin-3-yl)-N-(pyrazin-2-yl)-1,6,8-triazatricyclo[7.2.1.0 {2,7}]dodeca-2(7),3,5-triene-8-carboxamide], for which the “TRP Activity (EC1.5)” value is “B (B (EC1.5 1-25 μM))” and the Emax is more than 150%.
On to `Cc1ccc(-c2ccc3c(n2)N(C(=O)NCC(F)(F)F)[C@H]2CCN3C2)cn1` [(9S)-5-(6-methylpyridin-3-yl)-N-(2,2,2-trifluoroethyl)-1,6,8-triazatricyclo[7.2.1.0^{2,7}]dodeca-2(7),3,5-triene-8-carboxamide], for which the “TRP Activity (EC1.5)” value is given as “B (B (EC1.5 1-25 μM))” and the Emax was more than 150%.
Turning to `Cc1ccc(-c2ccc3c(n2)N(C(=O)NC2CCCOC2)[C@H]2CCN3C2)cn1` (stereo partly drawn) [(9S)-5-(6-methylpyridin-3-yl)-N-(oxan-3-yl)-1,6,8-triazatricyclo[7.2.1.0^{2,7}]dodeca-2(7),3,5-triene-8-carboxamide], the “TRP Activity (EC1.5)” value is listed as “C (C (EC1.5>25 μM))” and the Emax is less than 150%.
As for `Cc1ccc(-c2ccc3c(n2)N(C(=O)NC2CCOCC2)[C@H]2CCN3C2)cn1` [(9S)-5-(6-methylpyridin-3-yl)-N-(oxan-4-yl)-1,6,8-triazatricyclo[7.2.1.0^{2,7}]dodeca-2(7),3,5-triene-8-carboxamide], the “TRP Activity (EC1.5)” value is recorded as “C (C (EC1.5>25 μM))” and the Emax is less than 150%.
`Cc1ccc(-c2ccc3c(n2)N(C(=O)NC2CCOC2)[C@H]2CCN3C2)cn1` (stereo partly drawn) [(9S)-5-(6-methylpyridin-3-yl)-N-(oxolan-3-yl)-1,6,8-triazatricyclo[7.2.1.0 {2,7}]dodeca-2,4,6-triene-8-carboxamide]: the “TRP Activity (EC1.5)” value is “C (C (EC1.5>25 μM))” and the Emax was less than 150%.
Turning to `Cc1ccc(-c2ccc3c(n2)N(C(=O)NC(C)C)[C@H]2CCN3C2)cn1` [(9S)-5-(6-methylpyridin-3-yl)-N-(propan-2-yl)-1,6,8-triazatricyclo[7.2.1.0^{2,7}]dodeca-2,4,6-triene-8-carboxamide], the “TRP Activity (EC1.5)” value was “B (B (EC1.5 1-25 μM))” and the Emax is more than 150%.
`Cc1ccc(-c2ccc3c(n2)N(C(=O)Nc2ccnc(O[C@H]4CCOC4)n2)[C@H]2CCN3C2)cn1` [(9S)-5-(6-methylpyridin-3-yl)-N-{2-[(3S)-oxolan-3-yloxy]pyrimidin-4-yl}-1,6,8-triazatricyclo[7.2.1.0 {2,7}]dodeca-2,4,6-triene-8-carboxamide]: the “TRP Activity (EC1.5)” value is listed as “B (B (EC1.5 1-25 μM))” and the Emax is more than 150%.
Take `O=C(Nc1cnccn1)N1c2nc(N3CCOCC3)ccc2N2CC[C@H]1C2` [(9S)-5-(morpholin-4-yl)-N-(pyrazin-2-yl)-1,6,8-triazatricyclo[7.2.1.0 {2,7}]dodeca-2,4,6-triene-8-carboxamide]: the “TRP Activity (EC1.5)” value is recorded as “B (B (EC1.5 1-25 μM))” and the Emax is more than 150%.
With `O=C(Nc1cnccn1)N1c2nc(N3CCNCC3)ccc2N2CC[C@H]1C2` [(9S)-5-(piperazin-1-yl)-N-(pyrazin-2-yl)-1,6,8-triazatricyclo[7.2.1.0 {2,7}]dodeca-2,4,6-triene-8-carboxamide], the “TRP Activity (EC1.5)” value is “C (C (EC1.5>25 μM))” and the Emax was less than 150%.
Turning to `O=C(Nc1cnccn1)N1c2nc(N3CCCCC3)ccc2N2CC[C@H]1C2` [(9S)-5-(piperidin-1-yl)-N-(pyrazin-2-yl)-1,6,8-triazatricyclo[7.2.1.0 {2,7}]dodeca-2,4,6-triene-8-carboxamide], the “TRP Activity (EC1.5)” value is given as “B (B (EC1.5 1-25 μM))” and the Emax is more than 150%.
In the case of `CC(CO)NC(=O)c1ccc2c(n1)N(C(=O)Nc1ccccn1)[C@H]1CCN2C1` (stereo partly drawn) [(9S)-5-N-(1-hydroxypropan-2-yl)-8-N-(pyridin-2-yl)-1,6,8-triazatricyclo[7.2.1.0^{2,7}]dodeca-2(7),3,5-triene-5,8-dicarboxamide], the “TRP Activity (EC1.5)” value was “B (B (EC1.5 1-25 μM))” and the Emax was more than 150%.
